Measurements: PubChem BioAssay (NCI)
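The compound was tested at five concentrations on cells cultured in 96-well plates, with a 48-hour exposure period. GI50 is the concentration that inhibits growth by half. Definition used: TGI = concentration required for complete inhibition of growth.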

Tests used:
Assay in all cases: inhibition of tumour cell growth, NCI panel, 48 h
NCI-H226 lung = tested on: NCI-H226 lung
NCI-H23 lung = tested on: NCI-H23 lung
NCI-H460 lung = tested on: NCI-H460 lung
NCI-H522 lung = tested on: NCI-H522 lung
OVCAR-3 ovarian = tested on: OVCAR-3 ovarian
OVCAR-4 ovarian = tested on: OVCAR-4 ovarian
OVCAR-5 ovarian = tested on: OVCAR-5 ovarian
OVCAR-8 ovarian = tested on: OVCAR-8 ovarian
PC-3 prostate = tested on: PC-3 prostate
RPMI-8226 leukemia = tested on: RPMI-8226 leukemia
RXF 393 renal = tested on: RXF 393 renal
SF-268 CNS = tested on: SF-268 CNS
SF-295 CNS = tested on: SF-295 CNS
SF-539 CNS = tested on: SF-539 CNS
SK-MEL-2 melanoma = tested on: SK-MEL-2 melanoma
SK-MEL-28 melanoma = tested on: SK-MEL-28 melanoma
SK-MEL-5 melanoma = tested on: SK-MEL-5 melanoma
SK-OV-3 ovarian = tested on: SK-OV-3 ovarian
SN12C renal = tested on: SN12C renal
SNB-19 CNS = tested on: SNB-19 CNS
SNB-75 CNS = tested on: SNB-75 CNS
SR leukemia = tested on: SR leukemia
SW-620 colon = tested on: SW-620 colon
T-47D breast = tested on: T-47D breast
TK-10 renal = tested on: TK-10 renal
U251 CNS = tested on: U251 CNS
UACC-257 melanoma = tested on: UACC-257 melanoma
UACC-62 melanoma = tested on: UACC-62 melanoma
UO-31 renal = tested on: UO-31 renal

Question: Which results are given for COc1cc(C2=C(c3ccccc3)COC2=O)cc(OC)c1OC?
Answer: GI50 (NCI-H226 lung): 59.2 µM; TGI (NCI-H226 lung): > 100 µM; GI50 (NCI-H23 lung): 2.41 µM; TGI (NCI-H23 lung): > 27.7 µM; GI50 (NCI-H460 lung): 0.966 µM; TGI (NCI-H460 lung): 56.4 µM; GI50 (NCI-H522 lung): 2.48 µM; TGI (NCI-H522 lung): > 57.4 µM; GI50 (OVCAR-3 ovarian): 0.309 µM; TGI (OVCAR-3 ovarian): 2.1 µM; GI50 (OVCAR-4 ovarian): 38.9 µM; TGI (OVCAR-4 ovarian): > 100 µM; GI50 (OVCAR-5 ovarian): 4.84 µM; TGI (OVCAR-5 ovarian): > 100 µM; GI50 (OVCAR-8 ovarian): 5.04 µM; TGI (OVCAR-8 ovarian): > 51.4 µM; GI50 (PC-3 prostate): 1.35 µM; TGI (PC-3 prostate): > 100 µM; GI50 (RPMI-8226 leukemia): 1.12 µM; TGI (RPMI-8226 leukemia): 5.28 µM; GI50 (RXF 393 renal): 1.56 µM; TGI (RXF 393 renal): > 100 µM; GI50 (SF-268 CNS): 2.39 µM; TGI (SF-268 CNS): > 76.5 µM; GI50 (SF-295 CNS): 0.324 µM; TGI (SF-295 CNS): 2.9 µM; GI50 (SF-539 CNS): 1.26 µM; TGI (SF-539 CNS): > 51.4 µM; GI50 (SK-MEL-2 melanoma): 7.81 µM; TGI (SK-MEL-2 melanoma): > 100 µM; GI50 (SK-MEL-28 melanoma): > 100 µM; TGI (SK-MEL-28 melanoma): > 100 µM; GI50 (SK-MEL-5 melanoma): 1.4 µM; TGI (SK-MEL-5 melanoma): 19.3 µM; GI50 (SK-OV-3 ovarian): 4.56 µM; TGI (SK-OV-3 ovarian): > 100 µM; GI50 (SN12C renal): 5.96 µM; TGI (SN12C renal): > 100 µM; GI50 (SNB-19 CNS): 4.42 µM; TGI (SNB-19 CNS): > 100 µM; GI50 (SNB-75 CNS): > 100 µM; TGI (SNB-75 CNS): > 100 µM; TGI (SR leukemia): 0.295 µM; GI50 (SW-620 colon): 1.68 µM; TGI (SW-620 colon): > 100 µM; GI50 (T-47D breast): 20.9 µM; TGI (T-47D breast): > 100 µM; GI50 (TK-10 renal): 1.37 µM; TGI (TK-10 renal): > 30.6 µM; GI50 (U251 CNS): 5.86 µM; TGI (U251 CNS): > 100 µM; GI50 (UACC-257 melanoma): > 25 µM; TGI (UACC-257 melanoma): > 94.8 µM; GI50 (UACC-62 melanoma): 1.63 µM; TGI (UACC-62 melanoma): > 100 µM; GI50 (UO-31 renal): 7.77 µM; TGI (UO-31 renal): > 49.9 µM
